Results published in patent US20230414771A1, “PREPARATION AND USE OF IMMUNOSTIMULATORY CONJUGATED COMPLEXES FOR TARGETED DELIVERY AND ACTIVATION” (YAFEI SHANGHAI BIOLOGY MEDICINE SCIENCE & TECHNOLOGY CO., …, priority 2020, published 2023).
Where a SMILES comes first, the peptide text is derived from it. The star is where a group is joined. Doxorubicin(3'-N) = COc1cccc2c1C(=O)c1c(O)c3c(c(O)c1C2=O)C[C@@](O)(C(=O)CO)C[C@@H]3O[C@H]1C[C@H](N*)[C@H](O)[C@H](C)O1; Hexanoyl(6-maleimido) = O=C1C=CC(=O)N1CCCCCC(=O)*

Tests used:
[1] = test system: Human non-small cell lung cancer A549 tumor tissue homogenate; test: Activation in A549 tumor tissue homogenate; format: biochemical; settings: A549 homogenate pH 6.0, 37° C., 1 mg/ml
Description: (§1) In the experiments of the present disclosure, 1 mg/ml of the sample compound was added to 100 μg of acidified tumor tissue homogenate (pH 6.0) at 37° C. The enzyme in the tumor tissue homogenate can cause the release of doxorubicin, and the reduction of compound and the increase of doxorubicin could be detected by HPLC to compare the activation efficiency of the drug in the tumor tissue.

[2] = test system: Human renal carcinoma OS-RC-2 tumor tissue homogenate; test: Activation in OS-RC-2 tumor tissue homogenate; format: biochemical; settings: OS-RC-2 homogenate pH 6.0, 37° C., 1 mg/ml
Description: as §1

Human heart = test: Activation in human heart homogenate; format: biochemical; settings: pH 6.0, 37° C., 1 mg/ml
CT26 tumor = CT26 tumor immune model, tumor suppression and CD8+ T cell analysis; format: in vivo, BALB/c mice
Description: • 1) CT26 cells were purchased from ATCC. […] The corresponding 5×10^6 cells were injected subcutaneously into the back of […] mice. After the size of tumors reached at least 100 mm^3, the mice were randomized into groups. Treatment was then initiated, with the day of treatment initiation being Day 1. • 3) The course of treatment. The drug was administered at an equimolar dose of 36 umol/kg. The control group was given normal saline. The drug was administered once a week for three week. • 4) Tumor CD8+ T cell analysis. Tumor tissue was homogenized, individual cells in the tumor were filtered, dissociated and washed twice with buffer, and then incubated with leukocyte common antigen CD45-PE and CD8-FITC-labeled antibodies for 1 hour at room temperature. The cells were washed twice with phosphate buffered saline containing 1% fetal bovine serum, and then the proportion of T lymphocyte antigen (CD8)-positive cells in leukocyte common antigen (CD45)-positive cells was analyzed by flow cytometry. An increase in the ratio indicates an increase in T lymphocytes and therefore an improvement in the immunity of the animal to the tumor. • 5) The grouping and test results are shown in Table 7.

M2 macrophages = test: MTT cytotoxicity on M2 macrophages; format: cell-based, C57BL/6 mice; settings: 48 hours, relative to C3
Description: The bilateral femur and tibiae of two C57BL/6 mice were taken out under aseptic conditions, and that metaphysis was cut off in a super-clean table. the marrow cavity was gently washed with serum-free MEM culture solution by a 5 mL sterile syringe for 4 times, and all cell suspensions were collect; Centrifuge at 1000 r/min for 10 min, discard the supernatant to obtain the cell precipitate, resuspend with an appropriate volume of serum-free MEM culture medium, repeatedly blow and homogenize, filter with a 40 uM filter screen, add 3 times the volume of erythrocyte lysate, and lyse on ice for 10 min; Centrifuge at 1000 r/min for 5 min, discard the supernatant to obtain the cell precipitate, wash with serum-free MEM culture medium for 2 times, and collect the cell precipitate; Resuspend the cells with MEM complete culture medium containing 10% FBS and 1% PS in volume fraction, and count the cells for subsequent differentiation; 100 uL, 20000 cells/well were inoculated into 96-well cell culture plate, 100 ng M-CSF was added into the culture medium for differentiation of M2 macrophages, and the cells were statically cultured at 37° C. in 5% C02 incubator, and induced to differentiate for 7 days, and the cell morphology was observed. […]
The cell survival rate and the 50% inhibitory concentration of the drug on the cells were calculated. […]

[3] = drug 36 umol/kg once a week for three weeks, PD-1 antibody 5 mg/kg

| SMILES | Compound activation ratios (%) [1] [%] | Compound activation ratios (%) [2] [%] | Compound activation ratios (%) (Human heart) | CD8:CD45 (%) (CT26 tumor; CD8-positive among CD45-positive cells in tumor, flow cytometry) | therapeutic effect combined with PD-1, in words (CT26 tumor; combined with PD-1 versus single drug) | Tumor inhibition rate (%) Day 28 (CT26 tumor; [3]) [%] | Tumor volume (mm^3) Day 28 (CT26 tumor; [3]) [mm^3] | cytotoxicity against M2 macrophages (FIG. 6) (M2 macrophages) |
| --- | --- | --- | --- | --- | --- | --- | --- | --- |
| COc1cccc2c1C(=O)c1c(O)c3c(c(O)c1C2=O)C[C@@](O)(C(=O)CO)C[C@@H]3O[C@H]1C[C@H](NC(=O)[C@H](CC(C)C)NC(=O)[C@H](CC(N)=O)NC(=O)[C@H](C)NC(=O)[C@H](C)NC(=O)CCCCCN2C(=O)C=CC2=O)[C@H](O)[C@H](C)O1 [EMC-AANL-DOX] ({Hexanoyl(6-maleimido)}-AANL-{Doxorubicin(3'-N)}) | 46.4 | 46.4 | 0.2 | 8.9 | improved compared with single drug | 66.9 | 624.5 ± 313.6 | – |
| COc1cccc2c1C(=O)c1c(O)c3c(c(O)c1C2=O)C[C@@](O)(C(=O)CO)C[C@@H]3O[C@H]1C[C@H](NC(=O)[C@H](CC(C)C)NC(=O)[C@H](CC(N)=O)NC(=O)[C@H](C)NC(=O)[C@H](C)NC(=O)CCOCCOCCNC(=O)CCN2C(=O)C=CC2=O)[C@H](O)[C@H](C)O1 [QHL-087-DOX] | – | – | – | – | – | – | – | significantly improved cytotoxicity against M2 macrophages |
